According to patent US20110177964A1, “CHEMOSENSORY ARRAYS” (THE TRUSTEES OF PRINCETON UNIVERSITY, priority 2009, published 2011):
Changes are numbered by the printed parent chain.

Legend:
2211 receptor = molecular target: T1, 2211 receptor (Homo sapiens, UniProt Q15391, A193V/A252V/A98G/F243I/K54E); assay: Yeast growth plate assay (FUS1-HIS3 reporter) on selective media containing ligand; format: cell-based; settings: 2211 (parent) receptor, selective plates with ligand
T1 construct: expressed in transfected cells; host or cells: Saccharomyces yeast; strain CY10981 with FUS1-LacZ plasmid for β-galactosidase assays, strain CY10560 (FUS1-HIS3) for growth selection
T1 sequence (Q15391 with tags, fused parts or gaps K54E/A98G/A193V/F243I/A252V): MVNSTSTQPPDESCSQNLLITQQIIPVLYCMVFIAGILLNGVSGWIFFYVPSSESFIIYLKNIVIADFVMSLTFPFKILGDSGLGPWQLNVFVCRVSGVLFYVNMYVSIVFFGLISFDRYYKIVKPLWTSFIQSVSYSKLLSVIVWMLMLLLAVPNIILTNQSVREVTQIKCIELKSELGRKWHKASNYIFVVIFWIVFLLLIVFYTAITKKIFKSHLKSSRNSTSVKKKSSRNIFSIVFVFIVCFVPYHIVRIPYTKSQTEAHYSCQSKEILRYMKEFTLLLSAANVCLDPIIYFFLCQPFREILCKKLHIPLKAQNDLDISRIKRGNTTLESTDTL
Description: Mutagenesis and selection of sensitized receptor mutants: The entire UDPG receptor gene was mutagenized via errorprone mutagenesis to an estimated frequency of −2-5 mutations/kb following the Mutazyme protocol. […] A total of (1-2)×10^5 colonies were screened by replica plating to SC-His medium (Kaiser, C., Michaelis, S, and Mitchell, A. (1994) Methods in Yeast Genetics: A Cold Spring Harbor Laboratory Course Manual. Cold Spring Harbor Laboratory Press, Cold Spring Harbor, N.Y., which is incorporated herein by reference as if fully set forth) with or without ligand. Yeast growth media was supplemented by 1 mM 3AT, a competitive inhibitor of the HIS3 reporter gene product, which sets the threshold for reporter gene activation.
Cells were transformed with a plasmid library carrying the randomly mutated human UDPG receptor gene.
The 20 receptors isolated in this primary screen were subsequently retested for growth in the presence of lower concentrations of each ligand, to ascertain whether the receptor had significant changes in ligand preference. […] To determine whether the receptors that lacked appreciable changes in ligand specificity were indeed mutants and to verify the complexity of the mutant library, the DNA encoding each receptor was sequenced.

H-20 (R1) receptor = molecular target: T2, H-20 (R1) receptor (Homo sapiens, UniProt Q15391, A193V/A252V/A98G/F243I/I251T/K54E/R253K); assay: Yeast FUS1-lacZ β-galactosidase reporter assay, single receptor-single ligand calibration curves fitted by Bayesian nested sampling; format: cell-based; settings: for ΔG (receptor-ligand binding free energy): H-20 (R1) expressed in yeast, average ± s.d. from posterior; for A (receptor efficacy): H-20 (R1), 1 = full agonist, 0 = full antagonist
T2 construct: expressed in transfected cells; host or cells: Saccharomyces yeast; strain CY10981 with FUS1-LacZ plasmid for β-galactosidase assays, strain CY10560 (FUS1-HIS3) for growth selection
T2 sequence (Q15391 with tags, fused parts or gaps K54E/A98G/A193V/F243I/I251T/A252V/R253K): T1 sequence (Q15391 with tags, fused parts or gaps K54E/A98G/A193V/F243I/A252V) with I251T, R253K
Description: (§1) To assess receptor ligand interactions quantitatively in the chemosensor array, the receptors were functionally expressed in yeast. To do so, the yeast pheromone receptor was replaced with one of the sensor GPCRs in strains in which the pheromone response pathway was modified to respond to the heterologous receptor by inducing transcription of the E. coli lacZ gene. See the example section below. In this fashion, the extent of GPCR activation following ligand addition could be monitored as the level of β-galactosidase produced in the cell, which was measured using a fluorescence-based assay. See the example section below.
(§2) Receptor responses to binding of a single ligand. It was assumed that the observed signal in the receptor-bearing reporter strain is proportional to the probability that the receptor is bound by the ligand. This proportionality value, A, which is referred to as the receptor efficacy, can range from 1, for a full agonist, to 0, for a full antagonist, with intermediate values indicating partial agonist activity. In the simplest case of a single receptor interacting with a single ligand, the amount of activation of the reporter in the receptor bearing strain is given by:
(§3) where A is the receptor efficacy, ΔG is the receptor-ligand binding free energy, b is the background intensity, β=1/kBT (kB is the Boltzmann constant, and T is the temperature), and μ^l=kBT log n^l, which is the chemical potential, where n^l is the ligand concentration. In the example of fluorescing products, I can be measured by a fluorescent assay, but the intensity of any report may be utilized. […] In this example, the four receptors are R1: H-20, R2: K-3, and R3: L-3, R4: 2211. See the example section below for details regarding these receptors. […] For each curve, intensity normalized by the maximum intensity on the plate is plotted against log10 n (n is the ligand concentration in M). The error bars on each curve are from four biological replicates. The single receptor-single ligand binding curves can be used to calibrate the biophysical model (Eq. (1)) by inferring ΔG, A and b for each receptor-ligand combination and knowledge of μ^l. Specifically, Bayesian inference is applied. Referring to FIG. 4, the posterior probability P(ΔG, A, b, σ|{Ĩ}) is found by nested sampling (see below), where Ĩ=(l=1 . . . N) is the lth fluorescent and a is the noise parameter. […] This step provides calibration by returning the most likely value of ΔG, A and b for each receptor-ligand pair, as well as a value σ, which represents the noise in the response. The average value of each parameter obtained by marginalization of the posterior probability can be subsequently used for analysis of a mixture of compounds.
(§4) In this example, yeast cultures expressing each of the four mutant receptors (2211, H-20, K-3 and L-3) were grown overnight and diluted to OD600 of […] in flasks. Cultures were then grown to an OD600 of 0.1-0.2 and 80 μl of culture was aliquotted into deep-well 384 well plates along with 20 μL of ligand. Cultures in the 384 well plates were incubated with vigorous mixing for 4 hours (H-20, K-3, L-3) or overnight (2211). 50 μL of each sample was transferred to a black 384 well plate containing 25 μL fluorescein/lysis solution (as described in Chambers J, et al.). Fluorescence was read on a PerkinElmer fluorescent plate reader.

K-3 (R2) receptor = molecular target: T3, K-3 (R2) receptor (Homo sapiens, UniProt Q15391, A193V/A252V/A98G/E278G/F243I/K54E); assay: as above; format: cell-based; settings: for ΔG (receptor-ligand binding free energy): K-3 (R2) expressed in yeast, average ± s.d. from posterior; for A (receptor efficacy): K-3 (R2), 1 = full agonist, 0 = full antagonist
T3 construct: expressed in transfected cells; host or cells: Saccharomyces yeast; strain CY10981 with FUS1-LacZ plasmid for β-galactosidase assays, strain CY10560 (FUS1-HIS3) for growth selection
T3 sequence (Q15391 with tags, fused parts or gaps K54E/A98G/A193V/F243I/A252V/E278G): T1 sequence (Q15391 with tags, fused parts or gaps K54E/A98G/A193V/F243I/A252V) with E278G
Description: as §1, §2, §3, §4

L-3 (R3) receptor = molecular target: T4, L-3 (R3) receptor (Homo sapiens, UniProt Q15391, A193V/A252V/A285S/A98G/F243I/K54E/L281V/L282F); assay: as above; format: cell-based; settings: for ΔG (receptor-ligand binding free energy): L-3 (R3) expressed in yeast, average ± s.d. from posterior; for A (receptor efficacy): L-3 (R3), 1 = full agonist, 0 = full antagonist
T4 construct: expressed in transfected cells; host or cells: Saccharomyces yeast; strain CY10981 with FUS1-LacZ plasmid for β-galactosidase assays
T4 sequence (Q15391 with tags, fused parts or gaps K54E/A98G/A193V/F243I/A252V/L281V/L282F/A285S): T1 sequence (Q15391 with tags, fused parts or gaps K54E/A98G/A193V/F243I/A252V) with L281V, L282F, A285S
Description: as §1, §2, §3, §4

2211 (R4) receptor = molecular target: T5, 2211 (R4) receptor (Homo sapiens, UniProt Q15391, A193V/A252V/A98G/F243I/K54E); assay: as above; format: cell-based, yeast expressing yeast expressing yeast expressing yeast expressing human receptor receptor receptor receptor; settings: for ΔG (receptor-ligand binding free energy): 2211 (R4) expressed in yeast, average ± s.d. from posterior; for A (receptor efficacy): 2211 (R4), 1 = full agonist, 0 = full antagonist
T5 construct: expressed in transfected cells; host or cells: Saccharomyces yeast; strain CY10981 with FUS1-LacZ plasmid for β-galactosidase assays, strain CY10560 (FUS1-HIS3) for growth selection
T5 sequence (Q15391 with tags, fused parts or gaps K54E/A98G/A193V/F243I/A252V): T1 sequence (Q15391 with tags, fused parts or gaps K54E/A98G/A193V/F243I/A252V)
Description: as §1, §2, §3, §4

K-3 mutant receptor = molecular target: T6, K-3 mutant receptor (Homo sapiens, UniProt Q15391, A193V/A252V/A98G/E278G/F243I/K54E); assay: Yeast growth plate assay (FUS1-HIS3 reporter) on selective media containing ligand; format: cell-based; settings: K-3 mutant relative to its parent H-20
T6 construct: expressed in transfected cells; host or cells: Saccharomyces yeast; strain CY10981 with FUS1-LacZ plasmid for β-galactosidase assays, strain CY10560 (FUS1-HIS3) for growth selection
T6 sequence (Q15391 with tags, fused parts or gaps K54E/A98G/A193V/F243I/A252V/E278G): T1 sequence (Q15391 with tags, fused parts or gaps K54E/A98G/A193V/F243I/A252V) with E278G
Description: The ‘HIAR’ motif in transmembrane domain 6 was targeted. […] Libraries containing the randomized HIAR motif were constructed in vivo by cotransforming strain CY10560 cells with three DNA fragments: a 2211 receptor plasmid cut to remove the HIAR domain and a pair of PCR products synthesized with oligonucleotides randomized over the HIAR region and 50 and 30 extensions overlapping both sides of the gap in the plasmid. […] The 20 receptors isolated in this primary screen were subsequently retested for growth in the presence of lower concentrations of each ligand, to ascertain whether the receptor had significant changes in ligand preference. […] To determine whether the receptors that lacked appreciable changes in ligand specificity were indeed mutants and to verify the complexity of the mutant library, the DNA encoding each receptor was sequenced.
H-20 was selected as the template for mutagenesis of three additional motifs, ‘AxxFY’ and ‘NMY’ in TM3 and ‘KExT’ in TM7. These mutants were tested in the same manner as the HIAR mutants, focusing only on mutants with clear changes in relative growth on one or more ligands.

Row | Compound | receptor response to ligand (yeast growth) (2211 receptor) | ΔG (receptor-ligand binding free energy) (H-20 (R1) receptor) [kJ/mol] | A (receptor efficacy) (H-20 (R1) receptor) | ΔG (receptor-ligand binding free energy) (K-3 (R2) receptor) [kJ/mol] | A (receptor efficacy) (K-3 (R2) receptor) | ΔG (receptor-ligand binding free energy) (L-3 (R3) receptor) [kJ/mol] | A (receptor efficacy) (L-3 (R3) receptor) | ΔG (receptor-ligand binding free energy) (2211 (R4) receptor) [kJ/mol] | A (receptor efficacy) (2211 (R4) receptor) | agonist/antagonist character (H-20 (R1) receptor; H-20, small A, large negative ΔG) | agonist/antagonist character (K-3 (R2) receptor; K-3, small A, large negative ΔG) | agonist/antagonist character (L-3 (R3) receptor; L-3, small A, large negative ΔG) | agonist/antagonist character (2211 (R4) receptor; 2211, small A, large negative ΔG) | yeast growth in response to ligand (K-3 mutant receptor)
1 | Cc1cn([C@H]2C[C@H](O)[C@@H](COP(=O)(O)OP(=O)(O)O[C@H]3O[C@H](CO)[C@@H](O)[C@H](O)[C@H]3O)O2)c(=O)[nH]c1=O [dTDP-glucose] | do not activate |  |  |  |  |  |  |  |  |  |  |  |  | 
2 | CC(=O)N[C@H]1[C@@H](OP(=O)(O)OP(=O)(O)OC[C@H]2O[C@@H](n3ccc(=O)[nH]c3=O)[C@H](O)[C@@H]2O)O[C@H](CO)[C@H](O)[C@@H]1O [UDP-GalNAc, UDP-N-acetylgaltactosamine] | responds |  |  |  |  |  |  |  |  |  |  |  |  | 
3 | CC(=O)N[C@H]1[C@@H](OP(=O)(O)OP(=O)(O)OC[C@H]2O[C@@H](n3ccc(=O)[nH]c3=O)[C@H](O)[C@@H]2O)O[C@H](CO)[C@@H](O)[C@@H]1O [UDP-GlcNAc, UDP-N-acetylglucosamine] | responds | -25.8 ± 0.25 | .51 ± .01 | -22.4 ± 0.25 | .55 ± .01 | -23.4 ± 0.25 | .43 ± .01 | -33.5 ± 0.38 | .89 ± .04 |  |  |  |  | 
4 | O=c1ccn([C@@H]2O[C@H](COP(=O)(O)OP(=O)(O)O)[C@@H](O)[C@H]2O)c(=O)[nH]1 [UDP, uridine diphosphate] | do not activate | -31 ± 0.21 | .008 ± .009 | -34.3 ± 0.84 | .18 ± .01 | -31 ± 0.42 | .02 ± .02 | -43.1 ± 1.3 | .010 ± .009 | antagonist | antagonist | antagonist | antagonist | grew
